Results taken from US7368578B2, “Five-membered heterocyclic compounds” (Takeda Pharmaceutical Company Limited, priority 2002, dated 2008).
Structures can show the parent of a compound that is named as a salt.

| melting point [°C] | SMILES |
| --- | --- |
| 109 to 110 | CCOP(=O)(/C=C/c1cn(-c2ccccc2)nc1OCc1ccc(OCc2nc(-c3ccccc3)oc2C)cc1)OCC |
| 117 to 118 | CCOc1cc(COc2nn(-c3ccccc3)cc2/C=C/P(=O)(OCC)OCC)ccc1OCc1nc(-c2ccco2)oc1C |
| 92 to 93 | CCOP(=O)(/C=C/c1cn(-c2ccccc2)nc1OCc1ccc(OCc2nc(-c3ccco3)oc2C)c(C(=O)OC)c1)OCC |
| 169 to 170 | CCOP(=O)(/C=C/c1cn(-c2ccccc2)nc1OCc1ccc(OCc2nc(-c3ccco3)oc2C)c(C(=O)O)c1)OCC |
| 147 to 149 | CCOP(=O)(OCC)/C(O)=C/c1cn(-c2ccccc2)nc1OCc1ccc(OCc2nc(-c3ccco3)oc2C)c(OC)c1 |
| 143 to 144 | CCOP(=O)(/C=C/C=C/c1cn(-c2ccccc2)nc1OCc1ccc(OCc2nc(-c3ccco3)oc2C)c(OC)c1)OCC |
| 194 to 195 | CCOP(=O)(/C=C/c1cn(-c2ccccc2)nc1OCc1ccc(OCc2nc(-c3ccc(C(=O)O)cc3)oc2C)c(OC)c1)OCC |
| 146 to 148 | CCOP(=O)(/C=C/c1cn(-c2ccccc2)nc1OCc1ccc(OCc2nc(-c3ccc(C(N)=O)cc3)oc2C)c(OC)c1)OCC |
| 110 to 111 | CCOP(=O)(/C=C/c1cn(-c2ccccc2)nc1OCc1ccc(OCc2nc(-c3ccccc3)sc2C)c(OC)c1)OCC |
| 129 to 130 | CCOP(=O)(/C=C/c1cn(-c2ccccc2)nc1OCc1ccc(OCc2nc(-c3ccc(C(=O)OC)cc3)oc2C)c(OC)c1)OCC |
| 96 to 97 | CCOP(=O)(/C=C/c1cn(-c2ccccc2)nc1OCc1ccc(OCc2coc(-c3ccco3)n2)c(OC)c1)OCC |
| 113 to 114 | CCOP(=O)(/C=C/c1cn(-c2ccccc2)nc1OCc1ccc(OCc2sc(-c3ccccc3)nc2C)c(OC)c1)OCC |
| 144 to 145 | CCOP(=O)(/C=C/c1cn(-c2ccccc2)nc1OCc1ccc(OCc2nc(-c3ccccc3)cn2C)c(OC)c1)OCC |
| 128 to 129 | CCOP(=O)(/C=C/c1cn(-c2ccccc2)nc1OCc1ccc(OCc2nc(-c3cccnc3)oc2C)c(OC)c1)OCC |
| 127 to 128 | CCOP(=O)(/C=C/c1cn(-c2ccccc2)nc1OCc1ccc(OCc2nc(-c3cccc(O)c3)oc2C)c(OC)c1)OCC |
| 153 to 155 | CCOP(=O)(/C=C/c1cn(-c2ccccc2)nc1OCc1ccc(OCc2nc(-c3cccc(C(=O)O)c3)oc2C)cc1)OCC |
| 129 to 130 | CCOC(=O)c1ccc(-c2nc(COc3ccc(COc4nn(-c5ccccc5)cc4/C=C/P(=O)(OCC)OCC)cc3OC)c(C)o2)o1 |
| 144 to 145 | CCOP(=O)(/C=C/c1cn(-c2ccccc2)nc1OCc1ccc(OCc2nc(-c3ccc(OC)c(C(=O)OC)c3)oc2C)c(OC)c1)OCC |
| 130 to 131 | CCOC(=O)/C=C/c1nc(COc2ccc(COc3nn(-c4ccccc4)cc3/C=C/P(=O)(OCC)OCC)cc2OC)c(C)o1 |
| 121 to 122 | CCOP(=O)(/C=C/c1cn(-c2ccccc2)nc1OCc1ccc(OCc2nc(-c3ccc(C)c(C(=O)OC)c3)oc2C)c(OC)c1)OCC |
| 165 to 166 | CCOP(=O)(/C=C/c1cn(-c2ccccc2)nc1OCc1ccc(OCc2nc(-c3ccc(C)c(C(=O)O)c3)oc2CC)c(OC)c1)OCC |
| 114 to 115 | CCOC(=O)c1ccc(-c2nc(COc3ccc(COc4nn(-c5ccccc5)cc4/C=C/P(=O)(OCC)OCC)cc3OC)c(C)o2)s1 |
| 165 to 166 | CCOP(=O)(/C=C/c1cn(-c2ccccc2)nc1OCc1ccc(OCc2nc(-c3ccc(C(=O)O)s3)oc2C)c(OC)c1)OCC |
| 147 to 148 | CCOP(=O)(/C=C/c1cn(-c2ccccc2)nc1OCc1ccc(OCc2nc(-c3cccc(C#N)c3)oc2C)c(OC)c1)OCC |
| 112 to 113 | CCOP(=O)(/C=C\c1cn(-c2ccccc2)nc1OCc1ccc(OCc2nc(-c3cccc(C(=O)OC)c3)oc2C)c(OC)c1)OCC |
| 158 to 159 | CCOP(=O)(/C=C\c1cn(-c2ccccc2)nc1OCc1ccc(OCc2nc(-c3cccc(C(=O)O)c3)oc2C)c(OC)c1)OCC |

The next lines start with the molecule.

| SMILES | melting point [°C] |
| --- | --- |
| CCOP(=O)(/C=C/c1nc(-c2ccccc2)oc1COc1ccc(OCc2nc(-c3ccccc3)oc2C)cc1)OCC | 124 to 125 |
| CCOP(=O)(CCc1cc(OCc2ccc(OCc3nc(-c4ccco4)oc3C)c(OC)c2)nn1-c1ccccc1)OCC | 76 to 77 |
| COc1cc(COc2nn(-c3ccccc3)cc2/C=C/P(=O)(OC)OC)ccc1OCc1nc(-c2ccco2)oc1C | 107 to 108 |
| CCOP(=O)(/C=C/c1cn(-c2ccccc2)nc1OCc1ccc(OCc2nc(-c3ccco3)oc2C)cc1)OCC | 131 to 132 |
| CCOP(=O)(/C=C/c1cn(-c2ccccc2)nc1OCc1ccc(OCc2nc(-c3ccco3)oc2C)nc1)OCC | 134 to 135 |
| CCOP(=O)(/C=C/c1cn(C)nc1OCc1ccc(OCc2nc(-c3ccco3)oc2C)c(OC)c1)OCC | 72 to 73 |
| CCOP(=O)(/C=C/c1cn(CC)nc1OCc1ccc(OCc2nc(-c3ccco3)oc2C)c(OC)c1)OCC | 82 to 84 |
| CCOP(=O)(/C=C/c1cn(CCO)nc1OCc1ccc(OCc2nc(-c3ccco3)oc2C)c(OC)c1)OCC | 95 to 96 |
| CCOP(=O)(/C=C/c1cn(-c2ccccc2)nc1OCc1ccc(OCc2nc(N3CCCCC3)sc2C)c(OC)c1)OCC | 95 to 96 |
| CCOP(=O)(/C=C/c1cn(-c2ccccc2)nc1OCc1ccc(OCc2cn(-c3ccccn3)nc2C)c(OC)c1)OCC | 103 to 104 |
| CCOP(=O)(/C=C/c1cn(-c2ccccc2)nc1OCc1ccc(OCc2nc(N3CCOCC3)sc2C)c(OC)c1)OCC | 88 to 90 |
| CCOP(=O)(/C=C/c1cnc(-c2ccccc2)nc1OCc1ccc(OCc2nc(-c3ccco3)oc2C)c(OC)c1)OCC | 103 to 104 |
| CCOP(=O)(/C=C\c1cnc(-c2ccccc2)nc1OCc1ccc(OCc2nc(-c3ccco3)oc2C)c(OC)c1)OCC | 154 to 155 |
| CCOP(=O)(/C=C/c1cn(-c2ccccc2)nc1OCc1ccc(OCc2nc(N3CCC(C(=O)O)CC3)sc2C)c(OC)c1)OCC | 159 to 160 |
| CCOP(=O)(/C=C/c1cn(-c2ccccc2)nc1OCc1ccc(OCc2nc(-c3ccc(CC(=O)[O-])cc3)oc2C)c(OC)c1)OCC.[Na+] | 109 to 110 |
| COc1cc(COc2nn(-c3ccccc3)cc2C(C[N+](=O)[O-])C[N+](=O)[O-])ccc1OCc1nc(-c2ccco2)oc1C | 126 to 127 |
| COc1cc(COc2nn(-c3ccccc3)cc2C=O)ccc1OCc1nc(-c2cccc(OS(C)(=O)=O)c2)oc1C (as salt: methanesulfonate) [Example 228, 3-{4-[(4-{[(4-formyl-1-phenyl-1H-pyrazol-3-yl)oxy]methyl}-2-methoxyphenoxy)methyl]-5-methyl-1,3-oxazol-2-yl}phenyl methanesulfonate] | 146 to 148 |
| CCOC(=O)c1cn(Cc2ccccc2)nc1OCc1ccc(OCc2nc(-c3ccccc3)oc2C)c(OC)c1 [Example 1, ethyl 1-benzyl-3-({3-methoxy-4-[(5-methyl-2-phenyl-1,3-oxazol-4-yl)methoxy]benzyl}oxy)-1H-pyrazole-4-carboxylate] | 154 to 155 |
| COc1cc(COc2nn(Cc3ccccc3)cc2C(=O)O)ccc1OCc1nc(-c2ccccc2)oc1C [Example 2, 1-benzyl-3-({3-methoxy-4-[(5-methyl-2-phenyl-1,3-oxazol-4-yl)methoxy]benzyl}oxy)-1H-pyrazole-4-carboxylic acid] | 162 to 163 |
| COc1cc(COc2nn(Cc3ccccc3)cc2C(N)=O)ccc1OCc1nc(-c2ccccc2)oc1C [Example 3, 1-benzyl-3-({3-methoxy-4-[(5-methyl-2-phenyl-1,3-oxazol-4-yl)methoxy]benzyl}oxy)-1H-pyrazole-4-carboxamide] | 164 to 165 |
| COc1cc(COc2nn(Cc3ccccc3)cc2CO)ccc1OCc1nc(-c2ccccc2)oc1C [Example 4, [1-benzyl-3-({3-methoxy-4-[(5-methyl-2-phenyl-1,3-oxazol-4-yl)methoxy]benzyl}oxy)-1H-pyrazol-4-yl]methanol] | 90 to 91 |
| COc1cc(COc2nn(Cc3ccccc3)cc2C=O)ccc1OCc1nc(-c2ccccc2)oc1C [Example 5, 1-benzyl-3-({3-methoxy-4-[(5-methyl-2-phenyl-1,3-oxazol-4-yl)methoxy]benzyl}oxy)-1H-pyrazole-4-carbaldehyde] | 151 to 152 |
| CCOC(=O)c1cn(Cc2ccccc2)nc1OCc1ccc(OCc2nc(-c3ccco3)oc2C)cc1 [Example 6, ethyl 1-benzyl-3-[(4-{[2-(2-furyl)-5-methyl-1,3-oxazol-4-yl]methoxy}benzyl)oxy]-1H-pyrazole-4-carboxylate] | 101 to 102 |
| Cc1oc(-c2ccco2)nc1COc1ccc(COc2nn(Cc3ccccc3)cc2C(=O)O)cc1 [Example 7, 1-benzyl-3-[(4{[2-(2-furyl)-5-methyl-1,3-oxazol-4-yl]methoxy}benzyl)oxy]-1H-pyrazole-4-carboxylic acid] | 170 to 171 |
| Cc1oc(-c2ccco2)nc1COc1ccc(COc2nn(Cc3ccccc3)cc2C(N)=O)cc1 [Example 8, 1-benzyl-3-[(4{[2-(2-furyl)-5-methyl-1,3-oxazol-4-yl]methoxy}benzyl)oxy]-1H-pyrazole-4-carboxamide] | 139 to 140 |
| CC(=O)NC(=O)c1cn(Cc2ccccc2)nc1OCc1ccc(OCc2nc(-c3ccco3)oc2C)cc1 [Example 9, N-acetyl-1-benzyl-3-[(4{[2-(2-furyl)-5-methyl-1,3-oxazol-4-yl]methoxy}benzyl)oxy]-1H-pyrazole-4-carboxamide] | 193 to 194 |
| Cc1oc(-c2ccco2)nc1COc1ccc(COc2nn(Cc3ccccc3)cc2C=O)cc1 [Example 11, 1-benzyl-3-[(4{[2-(2-furyl)-5-methyl-1,3-oxazol-4-yl]methoxy}benzyl)oxy]-1H-pyrazole-4-carbaldehyde] | 118 to 119 |
| CCOC(=O)c1cn(Cc2ccccc2)nc1OCc1ccc(OCc2nc(-c3ccco3)oc2C)c(OC)c1 [Example 12, ethyl 1-benzyl-3-[(4-{[2-(2-furyl)-5-methyl-1,3-oxazol-4-yl]methoxy}-3-methoxybenzyl)oxy]-1H-pyrazole-4-carboxylate] | 117 to 118 |
